# Test results: article PMC7076352 (Pharmaceutics, 2020)
# Where two headings read alike, the source gives them in different places.
# Tests used:
# CYP3A4 = test: in vitro; settings: for IC50: microsomes
# Protocol: (§1) (OHBUP-[D6]) and 5 nM 4′-hydroxydiclofenac-[^13C6] (OHDIC-[^13C6]) as internal standards (ISs). […]
# (§2) standard addition experiments. Each group included four concentration levels. For the PK […]
# (§3) The probe compounds, viz. […]
# (§4) chosen after incubating all the recruited substrates. In order to assure the linear relationship […]
# (§5) The incubation system was also optimized in terms of substrate concentrations. The substrates concentrations of […]
# CYP2D6 = test: in vitro
# Protocol: as §1, §2, §3, §4, §5
# CYP2B6 = test: in vitro; settings: for IC50: microsomes
# Protocol: as §1, §2, §3, §4, §5
# CYP2C9 = test: in vitro; settings: for IC50: microsomes
# Protocol: as §1, §2, §3, §4, §5
# CYP2C19 = test: in vitro; settings: for IC50: microsomes
# Protocol: as §1, §2, §3, §4, §5
# CYP450s = test: In vitro cocktail CYP450 activity assay, isozyme not given; format: in vitro ADME, SD rat
# Protocol: (OHBUP-[D6]) and 5 nM 4′-hydroxydiclofenac-[^13C6] (OHDIC-[^13C6]) as internal standards (ISs).
# CYP1A2 = target: T1, CYP1A2 (Rattus norvegicus, UniProt P04799); test: In vitro cocktail CYP450 activity assay in rat liver microsomes, CYP1A2 (phenacetin probe)
# T1 sequence (P04799 1-513): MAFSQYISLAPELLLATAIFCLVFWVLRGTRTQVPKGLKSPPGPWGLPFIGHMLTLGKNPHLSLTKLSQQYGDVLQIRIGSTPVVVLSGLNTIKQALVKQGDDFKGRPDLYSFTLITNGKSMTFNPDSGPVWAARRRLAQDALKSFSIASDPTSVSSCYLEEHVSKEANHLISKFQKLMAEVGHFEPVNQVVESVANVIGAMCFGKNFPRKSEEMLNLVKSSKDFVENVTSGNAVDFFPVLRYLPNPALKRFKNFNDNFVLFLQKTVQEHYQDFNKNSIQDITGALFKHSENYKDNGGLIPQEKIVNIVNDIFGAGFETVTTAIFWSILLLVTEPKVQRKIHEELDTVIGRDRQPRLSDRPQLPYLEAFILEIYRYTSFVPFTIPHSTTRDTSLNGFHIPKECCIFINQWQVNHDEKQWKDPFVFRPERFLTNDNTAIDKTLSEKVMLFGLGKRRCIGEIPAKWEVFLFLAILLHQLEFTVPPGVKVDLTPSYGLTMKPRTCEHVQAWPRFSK
# Protocol: as §1, §2, §3, §4, §5
# CYP2E1 [1] = target: T2, CYP2E1 (Rattus norvegicus, UniProt P05182); settings: for IC50: microsomes
# T2 sequence (P05182 whole entry): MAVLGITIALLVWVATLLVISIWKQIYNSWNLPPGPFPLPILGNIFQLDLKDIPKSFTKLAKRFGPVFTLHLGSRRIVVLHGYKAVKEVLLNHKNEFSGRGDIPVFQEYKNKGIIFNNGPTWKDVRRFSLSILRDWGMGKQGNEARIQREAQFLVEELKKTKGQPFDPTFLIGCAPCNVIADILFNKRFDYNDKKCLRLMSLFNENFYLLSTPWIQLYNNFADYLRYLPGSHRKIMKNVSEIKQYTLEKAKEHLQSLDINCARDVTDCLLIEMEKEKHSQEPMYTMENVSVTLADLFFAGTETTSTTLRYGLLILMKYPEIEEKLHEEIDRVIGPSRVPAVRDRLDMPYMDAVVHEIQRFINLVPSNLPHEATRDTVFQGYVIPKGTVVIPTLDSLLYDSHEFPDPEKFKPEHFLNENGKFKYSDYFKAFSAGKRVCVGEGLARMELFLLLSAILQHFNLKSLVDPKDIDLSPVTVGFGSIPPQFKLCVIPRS
# Protocol: (§6) For the cocktail assay, the activity is expressed as the percentage of activity remaining comparing with that of a control sample containing no inhibitor. […] All the data were described as mean ± standard deviation (SD). Normality assumptions were tested by the Kolmogorov–Smirnov statistic setting p = 0.10 as the limit for rejection of the null hypothesis of normality. If the distribution of the data was normal with equal variances, a two-sided test was performed at the 5% level of significance. The Welch’s correction was then applied when the underlying variances were not equal. When the assumption of normality must be rejected, the Mann-Whitney test, a non-parametric equivalent of the independent-measures t-test, was used.
# in vivo = test: in vivo; design: species or system Sprague-Dawley (SD) rats; settings: Sprague-Dawley, plasma, rat
# Protocol: At each time, 0.5 mL of blood was collected in the heparin sodium tubes. Plasma was separated by centrifugation at 4000 rpm for 10 min and stored below −80 °C until bioanalysis. Oasis PRiME HLB SPE cartridges (1 cc/30 mg, Waters, Milford, MA, USA) were used to process the plasma samples (Supplementary Materials).
# The generic layout of instrumentation setup of the LVDI-UHPLC-MS/MS was conducted on a Shimadzu UHPLC system consisting of two LC-20ADXR pumps, a DGU-20A3R degasser, and a CBM-20A controller (Kyoto, Japan) with a SCIEX 4500 QTRAP mass spectrometer mounted with an electron spray ionization (ESI) interface as well as an electronic 6-port/2-channel valve (Foster City, CA, USA). Analyst software package (version 1.6.2, SCIEX) was implemented to control and synchronize the entire system, and also for data acquisition and processing. A single analytical run was fragmented into two phases, namely, loading and elution phases, by switching the electronic valve (Figure 2). At the loading phase, the valve was maintained at A-channel. The specimen aliquot of large volume delivered from the auto-sampler was captured onto a guard column. Meanwhile, the pumps were responsible for delivering the mobile phase at a high flow rate, aiming to dilute the sample solvent, thus facilitating the candidate constituents to concentrate on the pre-guard column. Then, the valve was automatically switched to the B-channel to trigger the elution phase. The trapped components were flushed from the pre-guard column into an analytical column, and underwent multiple reaction monitoring (MRM) analysis on the optimized LC gradients. The detailed information of LVDI-UHPLC-MS/MS analysis for pharmacokinetic and cocktail studies is shown in the Supplementary Materials section.
# CYP2E1 [2] = target: T2, CYP2E1; settings: IC50 CYP2E1, single components; RLM 0.2 mg/mL, 15 min, triplicate, mean ± SD
# Protocol: as §6
# [3] = at the Cmax level in rat plasma, calculated from the dose–response curve
# [4] = Sprague-Dawley, rat, 15 min, pH 7.4
smiles,measurement,setting,value
"O=c1c(OC2O[C@H](CO)[C@@H](O)[C@H](O)[C@H]2O)c(-c2ccc(O)cc2)oc2cc(O)c(O)c(O)c12 (stereo partly drawn) [A6, 6-hydoxykaempferol-3-O-glucoside]",IC50,CYP3A4,26.4 ± 1.39 µM
same,IC50,CYP2D6; microsomes,19.5 ± 2.83 µM
same,IC50,CYP2B6,115 ± 3.04 µM
same,IC50,CYP2C9,55.8 ± 3.4 µM
same,IC50,CYP2C19,53.67 ± 0.22 µM
same,IC50,CYP450s,≤ 15 µM
same,IC50,CYP1A2; microsomes,52.8 ± 1.93 µM
same,IC50,CYP2E1 [1],40.8 ± 1.65 µM
"O=C(/C=C/c1ccc(O)cc1)C1=C(O)C2=C(O[C@H]([C@@H](O)[C@H](O)[C@H](O)CO)[C@H]2C2=C(O)/C(=C(O)/C=C/c3ccc(O)cc3)C(=O)C(O)([C@@H]3O[C@H](CO)[C@@H](O)[C@H](O)[C@H]3O)C2=O)C(O)([C@@H]2O[C@H](CO)[C@@H](O)[C@H](O)[C@H]2O)C1=O (stereo partly drawn) [A8, anhydroxysafflor yellow B]",IC50,CYP3A4,34.4 ± 9.16 µM
same,IC50,CYP2D6; microsomes,10.5 ± 1.11 µM
same,IC50,CYP2B6,> 200 µM
same,IC50,CYP2C9,1.21 ± 0.51 µM
same,IC50,CYP2C19,111 ± 21.6 µM
same,IC50,CYP450s,≤ 15 µM
same,IC50,CYP1A2; microsomes,> 200 µM
same,IC50,CYP2E1 [1],9.06 ± 1.85 µM
"CC(C)=CCC[C@](C)(O[C@@H]1O[C@H](CO)[C@@H](O)[C@H](O)[C@H]1O)[C@H]1CC[C@]2(C)[C@@H]1[C@H](O)C[C@@H]1[C@@]3(C)CC[C@H](O)C(C)(C)[C@@H]3[C@@H](O[C@@H]3O[C@H](CO)[C@@H](O)[C@H](O)[C@H]3O)C[C@]12C [GRg1, ginsenoside Rg1]",IC50,"CYP3A4; Sprague-Dawley, rat, pH 7.4, IC50 CYP3A4, single components, RLM 0.2 mg/mL, 15 min, triplicate, mean ± SD",39.2 ± 4.57 µM
same,Response (% control) CYP3A4,CYP3A4; [3],97.76 % control
same,Response (% control) CYP2D6,CYP2D6; [4],99.88 % control
same,IC50 at 15 min,"CYP2D6; Sprague-Dawley, rat, microsomes, pH 7.4, IC50 CYP2D6",55.7 ± 6.08 µM
same,IC50 at 15 min,"CYP2B6; Sprague-Dawley, rat, pooled rat liver microsomes, pH 7.4, probe bupropion (90 µM, in seven-probe cocktail), IC50 CYP2B6, single components, RLM 0.2 mg/mL, 15 min, triplicate, mean ± SD",11 ± 0.87 µM
same,Response (% control) CYP2B6,CYP2B6; [3],98.23 % control
same,IC50 at 15 min,"CYP2C9; Sprague-Dawley, rat, pooled rat liver microsomes, pH 7.4, probe tolbutamide (18 µM, in seven-probe cocktail), IC50 CYP2C9, single components, RLM 0.2 mg/mL, 15 min, triplicate, mean ± SD",36.5 ± 1.32 µM
same,Response (% control) CYP2C9,CYP2C9; [3],96.27 % control
same,IC50 at 15 min,"CYP2C19; Sprague-Dawley, rat, pooled rat liver microsomes, pH 7.4, probe omeprazole (1.07 µM, in seven-probe cocktail), IC50 CYP2C19, single components, RLM 0.2 mg/mL, 15 min, triplicate, mean ± SD",78.1 ± 5.25 µM
same,Response (% control) CYP2C19,CYP2C19; [3],99.83 % control
same,concentration at […],in vivo; 0.083 h after oral CNP,0.38 ± 0.15 ng/mL
same,concentration at 0.25 h,in vivo; 0.25 h after oral CNP,0.48 ± 0.07 ng/mL
same,concentration at 0.5 h,in vivo; 0.5 h after oral CNP,0.53 ± 0.37 ng/mL
same,concentration at 1 h,in vivo; 1 h after oral CNP,0.4 ± 0.23 ng/mL
same,concentration at 1.5 h,in vivo; 1.5 h after oral CNP,0.43 ± 0.32 ng/mL
same,concentration at 2 h,in vivo; 2 h after oral CNP,0.4 ± 0.14 ng/mL
same,concentration at 3 h,in vivo; 3 h after oral CNP,0.53 ± 0.4 ng/mL
same,concentration at 4 h,in vivo; 4 h after oral CNP,0.47 ± 0.13 ng/mL
same,concentration at 6 h,in vivo; 6 h after oral CNP,0.37 ± 0.17 ng/mL
same,concentration at 8 h,in vivo; 8 h after oral CNP,0.65 ± 0.2 ng/mL
same,concentration at 12 h,in vivo; 12 h after oral CNP,0.6 ± 0.36 ng/mL
same,concentration at 24 h,in vivo; 24 h after oral CNP,0.34 ± 0.12 ng/mL
same,concentration at 48 h,in vivo; 48 h after oral CNP,0.13 ± 0.04 ng/mL
same,AUC(0-inf),"in vivo; po, 60 mg/kg",16.7 ± 3.93 ng·h/mL
same,AUC(0-t),"in vivo; po, 60 mg/kg",14 ± 5.03 ng·h/mL
same,Cmax,"in vivo; po, 60 mg/kg",0.78 ± 0.13 ng/mL
same,Tmax,"in vivo; po, 60 mg/kg",4.71 ± 3.71 h
same,half-life,"in vivo; po, 60 mg/kg",11.7 ± 2.09 h
same,concentration at 0.25 h,"in vivo; po, 60 mg·kg^−1",0.56 ± 0.15 ng/mL
same,concentration at 0.5 h,"in vivo; po, 60 mg·kg^−1",0.37 ± 0.12 ng/mL
same,concentration at 1 h,"in vivo; po, 60 mg·kg^−1",0.44 ± 0.19 ng/mL
same,concentration at 1.5 h,"in vivo; po, 60 mg·kg^−1",0.33 ± 0.21 ng/mL
same,concentration at 2 h,"in vivo; po, 60 mg·kg^−1",0.21 ± 0.05 ng/mL
same,concentration at 3 h,"in vivo; po, 60 mg·kg^−1",0.49 ± 0.29 ng/mL
same,concentration at 4 h,"in vivo; po, 60 mg·kg^−1",0.34 ± 0.32 ng/mL
same,concentration at 6 h,"in vivo; po, 60 mg·kg^−1",0.37 ± 0.13 ng/mL
same,concentration at 8 h,"in vivo; po, 60 mg·kg^−1",0.63 ± 0.14 ng/mL
same,concentration at 12 h,"in vivo; po, 60 mg·kg^−1",0.59 ± 0.27 ng/mL
same,concentration at 24 h,"in vivo; po, 60 mg·kg^−1",0.22 ± 0.13 ng/mL
same,concentration at 48 h,"in vivo; po, 60 mg·kg^−1",0.09 ± 0.01 ng/mL
same,IC50,"CYP1A2; IC50 CYP1A2, single components, RLM 0.2 mg/mL, 15 min, triplicate, mean ± SD",13.1 ± 8.24 µM
same,Response (% control) CYP1A2,CYP1A2; [3],98.46 % control
same,Response (% control) CYP2E1,CYP2E1 [1]; [4],99.57 % control
same,IC50,CYP2E1 [2],34.1 ± 4.76 µM
